{
  "source": "patent US11072588B2",
  "about": "“Barbituric acid derivatives comprising cationic and lipophilic groups” (UNIVERSITETET I TROMSØ—NORGES ARKTISKE UNIVERSITET, priority 2017, dated 2021)",
  "key": {"[1]": {"assay": "Determination of haemolytic activity", "assay_type": "cell-based", "conditions": "human red blood cells (washed, from heparinized fresh blood); human RBCs, 1 h, 37° C.; read-out: RBC: haemolytic activity against human RBCs (EC50)", "experimental": "Hemolysis was determined using a heparinized fraction (1000 IU/mL) of freshly drawn blood. Blood collected in EDTA containing test tubes (Vacutest®, KIMA, Arzergrande, Italy) was used for determination of the hematocrit (hct). The heparinized blood was washed 3× with pre-warmed PBS and adjusted to a final hct of 4%. Derivatives in DMSO (50 mM) were added to a 96-well polypropylene V-bottom plate (NUNC, Fisher Scientific, Oslo, Norway) and serially diluted. The test concentration range was 500-4 μM with DMSO contents ≤1%. A solution of 1% triton X-100 was used as positive control for 100% hemolysis. As negative control a solution of 1% DMSO in PBS buffer was included. No signs of DMSO toxicity were detected. RBCs (1% v/v final concentration) were added to the well plate and incubated at 37° C. and 800 rpm for 1 h. After centrifugation (5 min, 3000 g), 100 μL of each well were transferred to a 96-well flat bottom plate and absorbance was measured at 545 nm with a microplate reader (VersaMax™, Molecular Devices, Sunnyvale, Calif., USA). The percentage of hemolysis was calculated as the ratio of the absorbance in the derivative-treated and surfactant treated samples, corrected for the PBS background. Three independent experiments were performed and EC50 values are presented as averages."}, "S. epidermidis": {"test_system": "S. epidermidis", "assay": "Anti-biofilm activity (inhibition of biofilm formation)", "assay_type": "cell-based", "conditions": "Staphylococcus epidermidis, read-out: Anti-biofilm IC50"}, "E. faecium 50901530": {"test_system": "E. faecium 50901530", "assay": "MIC, multi-resistant clinical isolate", "assay_type": "cell-based, Enterococcus faecium", "experimental": "(§1) Working solutions of the test derivatives were prepared with up to 100% DMSO and stored at −20° C. If necessary, the solutions were heated to 40-80° C. before testing to facilitate complete dissolution. Double-distilled water was used in all dilutions prepared. […] A microdilution susceptibility test was used for MIC determination according to Clinical and Laboratory Standards Institute, “Methods for Dilution Antimicrobial Sisceptibility Tests for Bacteria That Graw Aerobically”, Approved Standard M07-A9, edition 2012, with modifications as described by Igumnova et al (Bioorg Med Chem, 2016, 24 (22), 5884-5894).\n(§2) Briefly, the bacterial inoculum was adjusted to approximately 2.5-3×10^4 cells/mL in Mueller-Hinton broth (MHB, Difco Laboratories, USA), and incubated in a ratio of 1:1 with test derivatives in polystyrene 96-well flat-bottom microplates (NUNC, Roskilde, Denmark). Positive growth control (without test derivatives) and negative control (without bacteria) were included. The reference antibiotic was oxytetracycline hydrochloride (Sigma Aldrich, Saint Louis, Mo., USA). The microplates were incubated in an EnVision microplate reader (Perkin-Elmer, Turku, Finland) placed in an incubator set to 35° C. for 48 h. The MIC value was defined as the lowest concentration of derivative resulting in no bacterial growth as determined by OD600 measurement. All derivatives were tested in three parallels.\n(§3) The MIC was determined as explained above with some exceptions; working solutions of test derivatives were prepared from concentrated DMSO stocks stored at room temperature, the density of the bacterial inoculum was increased 40× to 1-1.2×10^6 cells/mL, enterococci were incubated in Brain Heart Infusion broth (BHIB, Difco Laboratories, USA), the microplates were incubated for 24 h, and the derivatives were tested in four parallels."}, "E. faecium K36-18": {"test_system": "E. faecium K36-18", "assay": "MIC, multi-resistant clinical isolate", "assay_type": "cell-based, Enterococcus faecium", "experimental": "as §1, §2, §3"}, "E. faecium TUH50-22": {"test_system": "E. faecium TUH50-22", "assay": "MIC, multi-resistant clinical isolate", "assay_type": "cell-based, Enterococcus faecium", "experimental": "as §1, §2, §3"}, "E. faecium 50758899": {"test_system": "E. faecium 50758899", "assay": "MIC, multi-resistant clinical isolate", "assay_type": "cell-based, Enterococcus faecium", "experimental": "as §1, §2, §3"}, "E. faecium 50673722": {"test_system": "E. faecium 50673722", "assay": "MIC, multi-resistant clinical isolate", "assay_type": "cell-based, Enterococcus faecium", "experimental": "as §1, §2, §3"}, "S. aureus N315": {"test_system": "S. aureus N315", "assay": "MIC, multi-resistant clinical isolate", "assay_type": "cell-based, Staphylococcus aureus", "experimental": "as §1, §2, §3"}, "S. aureus IHT 99040": {"test_system": "S. aureus IHT 99040", "assay": "MIC, multi-resistant clinical isolate", "assay_type": "cell-based, Staphylococcus aureus", "experimental": "as §1, §2, §3"}, "S. aureus strain 85/2082": {"test_system": "S. aureus strain 85/2082", "assay": "MIC, multi-resistant clinical isolate", "assay_type": "cell-based, Staphylococcus aureus", "experimental": "as §1, §2, §3"}, "S. aureus strain WIS": {"test_system": "S. aureus strain WIS", "assay": "MIC, multi-resistant clinical isolate", "assay_type": "cell-based, Staphylococcus aureus", "experimental": "as §1, §2, §3"}, "S. aureus NCTC 10442": {"test_system": "S. aureus NCTC 10442", "assay": "MIC, multi-resistant clinical isolate", "assay_type": "cell-based, Staphylococcus aureus", "experimental": "as §1, §2, §3"}, "A. baumanii K12-21": {"test_system": "A. baumanii K12-21", "assay": "MIC, multi-resistant clinical isolate", "assay_type": "cell-based, Acinetobacter baumannii", "experimental": "as §1, §2, §3"}, "A. baumanii K55-13": {"test_system": "A. baumanii K55-13", "assay": "MIC, multi-resistant clinical isolate", "assay_type": "cell-based, Acinetobacter baumannii", "experimental": "as §1, §2, §3"}, "A. baumanii K47-42": {"test_system": "A. baumanii K47-42", "assay": "MIC, multi-resistant clinical isolate", "assay_type": "cell-based, Acinetobacter baumannii", "experimental": "as §1, §2, §3"}, "A. baumanii K44-35": {"test_system": "A. baumanii K44-35", "assay": "MIC, multi-resistant clinical isolate", "assay_type": "cell-based, Acinetobacter baumannii", "experimental": "as §1, §2, §3"}, "[2]": {"conditions": "Enterococcus faecium, read-out: Antimicrobial activity (MIC)"}},
  "data": [
    {"smiles": "NCCCCN1C(=O)N(CCCCN)C(=O)C(Cc2ccc(F)c3ccccc23)(Cc2ccc(F)c3ccccc23)C1=O", "note": "[7(v), 1,3-bis(4-aminobutyl)-5,5-bis((4-fluoronaphtalen-1-yl)methyl)pyrimidin-2,4,6(1H,3H,5H)-trione]", "values": [
      {"measurement": "EC50 at 1 h", "setting": "[1]", "value": 160, "unit": "µg/mL"},
      {"measurement": "IC50", "setting": "S. epidermidis", "value": 4, "unit": "µg/mL"},
      {"measurement": "MIC", "setting": "E. faecium 50901530; [2]", "value": 4, "unit": "µg/mL"},
      {"measurement": "selectivity index (EC50/MIC)", "setting": "E. faecium 50901530; RBC EC50 / MIC", "value": "(40)"},
      {"measurement": "MIC", "setting": "E. faecium K36-18; Enterococcus faecium, K3618, read-out: Antimicrobial activity (MIC)", "value": 8, "unit": "µg/mL"},
      {"measurement": "selectivity index (EC50/MIC)", "setting": "E. faecium K36-18; RBC EC50 / MIC, E. faecium K36-18", "value": "(20)"},
      {"measurement": "MIC", "setting": "E. faecium TUH50-22; Enterococcus faecium, TUH5022, read-out: Antimicrobial activity (MIC)", "value": 4, "unit": "µg/mL"},
      {"measurement": "selectivity index (EC50/MIC)", "setting": "E. faecium TUH50-22; RBC EC50 / MIC", "value": "(40)"},
      {"measurement": "MIC", "setting": "E. faecium 50758899; [2]", "value": 8, "unit": "µg/mL"},
      {"measurement": "selectivity index (EC50/MIC)", "setting": "E. faecium 50758899; RBC EC50 / MIC", "value": "(20)"},
      {"measurement": "MIC", "setting": "E. faecium 50673722; [2]", "value": 8, "unit": "µg/mL"},
      {"measurement": "selectivity index (EC50/MIC)", "setting": "E. faecium 50673722; RBC EC50 / MIC", "value": "(20)"},
      {"measurement": "selectivity index (EC50/MIC)", "setting": "S. aureus N315; RBC EC50 / MIC, S. aureus N315", "value": "(20)"},
      {"measurement": "MIC", "setting": "S. aureus N315; Staphylococcus aureus, N315, read-out: Antimicrobial activity (MIC)", "value": 8, "unit": "µg/mL"},
      {"measurement": "selectivity index (EC50/MIC)", "setting": "S. aureus IHT 99040; RBC EC50 / MIC", "value": "(20)"},
      {"measurement": "MIC", "setting": "S. aureus IHT 99040; Staphylococcus aureus, IHT99040, read-out: Antimicrobial activity (MIC)", "value": 8, "unit": "µg/mL"},
      {"measurement": "selectivity index (EC50/MIC)", "setting": "S. aureus strain 85/2082; RBC EC50 / MIC, S. aureus strain 85/2082", "value": "(40)"},
      {"measurement": "MIC", "setting": "S. aureus strain 85/2082; Staphylococcus aureus, 85/2082, read-out: Antimicrobial activity (MIC)", "value": 4, "unit": "µg/mL"},
      {"measurement": "selectivity index (EC50/MIC)", "setting": "S. aureus strain WIS; RBC EC50 / MIC, S. aureus strain WIS", "value": "(20)"},
      {"measurement": "MIC", "setting": "S. aureus strain WIS; Staphylococcus aureus, read-out: Antimicrobial activity (MIC)", "value": 8, "unit": "µg/mL"},
      {"measurement": "selectivity index (EC50/MIC)", "setting": "S. aureus NCTC 10442; RBC EC50 / MIC, S. aureus NCTC 10442", "value": "(20)"},
      {"measurement": "MIC", "setting": "S. aureus NCTC 10442; Staphylococcus aureus, NCTC10442, read-out: Antimicrobial activity (MIC)", "value": 8, "unit": "µg/mL"},
      {"measurement": "MIC", "setting": "A. baumanii K12-21; Acinetobacter baumannii, K1221, read-out: Antimicrobial activity (MIC)", "value": 32, "unit": "µg/mL"},
      {"measurement": "selectivity index (EC50/MIC)", "setting": "A. baumanii K12-21; RBC EC50 / MIC", "value": "(5)"},
      {"measurement": "MIC", "setting": "A. baumanii K55-13; Acinetobacter baumannii, K5513, read-out: Antimicrobial activity (MIC)", "value": 32, "unit": "µg/mL"},
      {"measurement": "selectivity index (EC50/MIC)", "setting": "A. baumanii K55-13; RBC EC50 / MIC", "value": "(5)"},
      {"measurement": "MIC", "setting": "A. baumanii K47-42; Acinetobacter baumannii, K4742, read-out: Antimicrobial activity (MIC)", "value": 32, "unit": "µg/mL"},
      {"measurement": "selectivity index (EC50/MIC)", "setting": "A. baumanii K47-42; RBC EC50 / MIC", "value": "(5)"},
      {"measurement": "MIC", "setting": "A. baumanii K44-35; Acinetobacter baumannii, K4435, read-out: Antimicrobial activity (MIC)", "value": 32, "unit": "µg/mL"},
      {"measurement": "selectivity index (EC50/MIC)", "setting": "A. baumanii K44-35; RBC EC50 / MIC", "value": "(5)"}
    ]}
  ]
}
